Each block holds one compound with its values, some of them ahead of it.
Tests used:
[1] = Effect of temperature (and pH) on the stability of the solution (purity); assay type: physicochemical; details: 7% solution in water
[2] = Effect of concentration on the stability of the solution (purity over time)
[3] = 0.01 wt %, at 5° C. in 15% acetone
[4] = 0.1 wt %, at 5° C. in 15% acetone
[5] = 1 wt %, at 5° C. in 15% acetone
[6] = 3 wt %, at 5° C. in 15% acetone
[7] = 5 wt %, at 5° C. in 15% acetone
[8] = 7 wt %, at 5° C. in 15% acetone
[9] = 8 wt %, at 5° C. in 15% acetone
[10] = 10 wt %, at 5° C. in 15% acetone
[11] = 15 wt %, at 5° C. in 15% acetone
[12] = 20 wt %, at 5° C. in 15% acetone
[13] = 30 wt %, at 5° C. in 15% acetone
[14] = 50 wt %, at 5° C. in 15% acetone

Stability of the solution at a temperature higher than 40° C. and a pH lower than 3 or greater than 6 [1]: not stable | Purity at Day 3 ([2]; 0.01 wt %, in water at 25° C.): 83.4% | Purity at Day 7 ([2]; 0.01 wt %, in water at 25° C.): 74.2% | Purity at Day 14 ([2]; 0.01 wt %, in water at 25° C.): 58.4% | Purity at Day 21 ([2]; 0.01 wt %, in water at 25° C.): 46.5% | Purity at Day 28 ([2]; 0.01 wt %, in water at 25° C.): 37.5% | Purity at hr 0 ([2]; 0.01 wt %, in water at 25° C.): 98.4% | Purity at Day 3 ([2]; 0.1 wt %, in water at 25° C.): 96.7% | Purity at Day 7 ([2]; 0.1 wt %, in water at 25° C.): 95.6% | Purity at Day 14 ([2]; 0.1 wt %, in water at 25° C.): 91.5% | Purity at Day 21 ([2]; 0.1 wt %, in water at 25° C.): 84.7% | Purity at Day 28 ([2]; 0.1 wt %, in water at 25° C.): 80.5% | Purity at hr 0 ([2]; 0.1 wt %, in water at 25° C.): 98.5% | Purity at Day 3 ([2]; 1 wt %, in water at 25° C.): 96.6% | Purity at Day 7 ([2]; 1 wt %, in water at 25° C.): 95.5% | Purity at Day 14 ([2]; 1 wt %, in water at 25° C.): 92.9% | Purity at Day 21 ([2]; 1 wt %, in water at 25° C.): 90.9% | Purity at Day 28 ([2]; 1 wt %, in water at 25° C.): 89.1% | Purity at hr 0 ([2]; 1 wt %, in water at 25° C.): 98.7% | Purity at Day 3 ([2]; 3 wt %, in water at 25° C.): 96.5% | Purity at Day 7 ([2]; 3 wt %, in water at 25° C.): 96.2% | Purity at Day 14 ([2]; 3 wt %, in water at 25° C.): 94.8% | Purity at Day 21 ([2]; 3 wt %, in water at 25° C.): 94.0% | Purity at Day 28 ([2]; 3 wt %, in water at 25° C.): 92.7% | Purity at hr 0 ([2]; 3 wt %, in water at 25° C.): 98.9% | Purity at Day 3 ([2]; 5 wt %, in water at 25° C.): 98.4% | Purity at Day 7 ([2]; 5 wt %, in water at 25° C.): 98.0% | Purity at Day 14 ([2]; 5 wt %, in water at 25° C.): 97.8% | Purity at Day 21 ([2]; 5 wt %, in water at 25° C.): 96.6% | Purity at Day 28 ([2]; 5 wt %, in water at 25° C.): 95.4% | Purity at hr 0 ([2]; 5 wt %, in water at 25° C.): 98.9% | Purity at Day 3 ([2]; 7 wt %, in water at 25° C.): 98.6% | Purity at Day 7 ([2]; 7 wt %, in water at 25° C.): 98.2% | Purity at Day 14 ([2]; 7 wt %, in water at 25° C.): 98.2% | Purity at Day 21 ([2]; 7 wt %, in water at 25° C.): 97.7% | Purity at Day 28 ([2]; 7 wt %, in water at 25° C.): 97.5% | Purity at hr 0 ([2]; 7 wt %, in water at 25° C.): 99.1% | Purity at Day 3 ([2]; 8 wt %, in water at 25° C.): 98.7% | Purity at Day 7 ([2]; 8 wt %, in water at 25° C.): 98.3% | Purity at Day 14 ([2]; 8 wt %, in water at 25° C.): 97.9% | Purity at Day 21 ([2]; 8 wt %, in water at 25° C.): 97.9% | Purity at Day 28 ([2]; 8 wt %, in water at 25° C.): 97.6% | Purity at hr 0 ([2]; 8 wt %, in water at 25° C.): 99.1% | Purity at Day 3 ([2]; 10 wt %, in water at 25° C.): 98.8% | Purity at Day 7 ([2]; 10 wt %, in water at 25° C.): 98.5% | Purity at Day 14 ([2]; 10 wt %, in water at 25° C.): 98.3% | Purity at Day 21 ([2]; 10 wt %, in water at 25° C.): 98.1% | Purity at Day 28 ([2]; 10 wt %, in water at 25° C.): 97.5% | Purity at hr 0 ([2]; 10 wt %, in water at 25° C.): 99.2% | Purity at Day 3 ([2]; 15 wt %, in water at 25° C.): 98.7% | Purity at Day 7 ([2]; 15 wt %, in water at 25° C.): 98.6% | Purity at Day 14 ([2]; 15 wt %, in water at 25° C.): 98.4% | Purity at Day 21 ([2]; 15 wt %, in water at 25° C.): 98.1% | Purity at Day 28 ([2]; 15 wt %, in water at 25° C.): 97.8% | Purity at hr 0 ([2]; 15 wt %, in water at 25° C.): 99.1% | Purity at Day 3 ([2]; 20 wt %, in water at 25° C.): 98.8% | Purity at Day 7 ([2]; 20 wt %, in water at 25° C.): 98.5% | Purity at Day 14 ([2]; 20 wt %, in water at 25° C.): 98.2% | Purity at Day 21 ([2]; 20 wt %, in water at 25° C.): 98.1% | Purity at Day 28 ([2]; 20 wt %, in water at 25° C.): 97.7% | Purity at hr 0 ([2]; 20 wt %, in water at 25° C.): 99.0% | Purity at Day 3 ([2]; 30 wt %, in water at 25° C.): 98.7% | Purity at Day 7 ([2]; 30 wt %, in water at 25° C.): 98.5% | Purity at Day 14 ([2]; 30 wt %, in water at 25° C.): 98.3% | Purity at Day 21 ([2]; 30 wt %, in water at 25° C.): 98.0% | Purity at Day 28 ([2]; 30 wt %, in water at 25° C.): 97.8% | Purity at hr 0 ([2]; 30 wt %, in water at 25° C.): 99.1% | Purity at Day 3 ([2]; 50 wt %, in water at 25° C.): 98.8% | Purity at Day 7 ([2]; 50 wt %, in water at 25° C.): 98.5% | Purity at Day 14 ([2]; 50 wt %, in water at 25° C.): 98.2% | Purity at Day 21 ([2]; 50 wt %, in water at 25° C.): 98.9% | Purity at Day 28 ([2]; 50 wt %, in water at 25° C.): 97.8% | Purity at hr 0 ([2]; 50 wt %, in water at 25° C.): 99.1% | Stability when the concentration is 0.1% or lower ([2]; in water at 25° C.): not stable
Compound: CCN(CC)CCOC(=O)Cc1sc(-c2ccccc2)nc1-c1ccc(Cl)cc1.Cl [2-(diethylamino)ethyl 4-(4-chlorophenyl)-2-phenyl-5-thiazoleacetate•HCl]

Compound: CCN(CC)CCOC(=O)c1cc(-c2ccc(F)cc2F)ccc1OC(C)=O.Cl [2-(diethylamino)ethyl 5-(2,4-difluorophenyl)-2-acetoxybenzoate•HCl]
Stability of the solution at a temperature higher than 40° C. and a pH lower than 3 or greater than 6 [1]: not stable | Purity at day 0 [2, 3]: 98.2% | Purity at day 3 [2, 3]: 93.9% | Purity at day 7 [2, 3]: 88.1% | Purity at day 15 [2, 3]: 80.3% | Purity at day 22 [2, 3]: 73.7% | Purity at day 28 [2, 3]: 67.9% | Purity at day 60 [2, 3]: 48.1% | Purity at day 90 [2, 3]: 30.0% | Purity at day 0 [2, 4]: 98.3% | Purity at day 3 [2, 4]: 95.1% | Purity at day 7 [2, 4]: 93.1% | Purity at day 15 [2, 4]: 89.0% | Purity at day 22 [2, 4]: 85.3% | Purity at day 28 [2, 4]: 82.3% | Purity at day 60 [2, 4]: 70.5% | Purity at day 90 [2, 4]: 61.2% | Purity at day 0 [2, 5]: 98.4% | Purity at day 3 [2, 5]: 97.0% | Purity at day 7 [2, 5]: 95.9% | Purity at day 15 [2, 5]: 94.0% | Purity at day 22 [2, 5]: 92.2% | Purity at day 28 [2, 5]: 89.7% | Purity at day 60 [2, 5]: 79.4% | Purity at day 90 [2, 5]: 71.9% | Purity at day 0 [2, 6]: 98.5% | Purity at day 3 [2, 6]: 97.7% | Purity at day 7 [2, 6]: 96.6% | Purity at day 15 [2, 6]: 94.9% | Purity at day 22 [2, 6]: 92.1% | Purity at day 28 [2, 6]: 91.2% | Purity at day 60 [2, 6]: 84.4% | Purity at day 90 [2, 6]: 79.2% | Purity at day 0 [2, 7]: 98.6% | Purity at day 3 [2, 7]: 98.2% | Purity at day 7 [2, 7]: 97.8% | Purity at day 15 [2, 7]: 97.3% | Purity at day 22 [2, 7]: 96.1% | Purity at day 28 [2, 7]: 95.5% | Purity at day 60 [2, 7]: 94.5% | Purity at day 90 [2, 7]: 93.9% | Purity at day 0 [2, 8]: 98.7% | Purity at day 3 [2, 8]: 98.4% | Purity at day 7 [2, 8]: 98.4% | Purity at day 15 [2, 8]: 98.0% | Purity at day 22 [2, 8]: 97.5% | Purity at day 28 [2, 8]: 97.2% | Purity at day 60 [2, 8]: 96.2% | Purity at day 90 [2, 8]: 95.8% | Purity at day 0 [2, 9]: 98.6% | Purity at day 3 [2, 9]: 98.5% | Purity at day 7 [2, 9]: 98.3% | Purity at day 15 [2, 9]: 98.1% | Purity at day 22 [2, 9]: 97.4% | Purity at day 28 [2, 9]: 97.1% | Purity at day 60 [2, 9]: 96.0% | Purity at day 90 [2, 9]: 95.9% | Purity at day 0 [2, 10]: 98.7% | Purity at day 3 [2, 10]: 98.5% | Purity at day 7 [2, 10]: 98.5% | Purity at day 15 [2, 10]: 98.2% | Purity at day 22 [2, 10]: 97.7% | Purity at day 28 [2, 10]: 97.3% | Purity at day 60 [2, 10]: 96.7% | Purity at day 90 [2, 10]: 96.1% | Purity at day 0 [2, 11]: 98.6% | Purity at day 3 [2, 11]: 98.4% | Purity at day 7 [2, 11]: 98.4% | Purity at day 15 [2, 11]: 98.3% | Purity at day 22 [2, 11]: 97.5% | Purity at day 28 [2, 11]: 97.2% | Purity at day 60 [2, 11]: 96.5% | Purity at day 90 [2, 11]: 96.2% | Purity at day 0 [2, 12]: 98.7% | Purity at day 3 [2, 12]: 98.5% | Purity at day 7 [2, 12]: 98.5% | Purity at day 15 [2, 12]: 98.3% | Purity at day 22 [2, 12]: 98.0% | Purity at day 28 [2, 12]: 97.1% | Purity at day 60 [2, 12]: 96.6% | Purity at day 90 [2, 12]: 96.0% | Purity at day 0 [2, 13]: 98.5% | Purity at day 3 [2, 13]: 98.5% | Purity at day 7 [2, 13]: 98.4% | Purity at day 15 [2, 13]: 98.1% | Purity at day 22 [2, 13]: 97.9% | Purity at day 28 [2, 13]: 97.3% | Purity at day 60 [2, 13]: 96.7% | Purity at day 90 [2, 13]: 96.2% | Purity at day 0 [2, 14]: 98.7% | Purity at day 3 [2, 14]: 98.7% | Purity at day 7 [2, 14]: 98.5% | Purity at day 15 [2, 14]: 98.3% | Purity at day 22 [2, 14]: 97.8% | Purity at day 28 [2, 14]: 97.2% | Purity at day 60 [2, 14]: 96.9% | Purity at day 90 [2, 14]: 96.3% | Stability when the concentration is 0.1% or lower ([2]; at 5° C. in 15% acetone): not stable

Reference: US20230157952A1, “METHOD FOR IMPROVING THE STABILITY OF A PHARMACEUTICAL COMPOSITION COMPRISING A HIGH PENETRATION DRUG, AND THE PHARMACEUTICAL COMPOSITION OBTAINED THEREFROM” (Techfields Inc., priority 2020, published 2023)
